The text below walks through data of ChEMBL document CHEMBL4420060, “Combinatorial therapies for the treatment of neoplasias using the opioid growth factor receptor” (2013).

Experiment [1] concerns UMSCC1. As to the kind of experiment: Induction of cell cycle arrest in human UM-SCC-1 cells assessed as reduction in accumulation at G2/M phase in presence of OGF after 6 hrs by flow cytometry. In kind it is functional, cell-based. (In general: Flow cytometry measures light scatter and fluorescence of single cells or particles in a stream.)
Experiment [2] has as its system UMSCC1. Kind of experiment: Antitumor activity against human UM-SCC-1 cells xenografted in nu/nu mouse assessed as latency time for measurable (62.5 mm3) tumors at 120 mg/kg dosed every 3 days (Rvb <=14 days). In kind it is functional. On the technique in general: A xenograft is tissue or cells of one species grown in another, often human tumour cells in immunodeficient mice.

In experiment [3] the test system is UMSCC1. Kind of experiment: Antitumor activity against human UM-SCC-1 cells xenografted in nu/nu mouse assessed as reduction in tumor measured on 4 to 36 day of measurable tumors at 120 mg/kg dosed every 3 days relative to control. In kind it is functional, organism-based.
In experiment [4] the test system is MIA PaCa-2. As to the kind of experiment: Growth inhibition of human MIAPaCa2 cells assessed as decrease in cell number at 0.01 uM incubated for 72 hrs in presence of 1 uM OGF by trypan blue staining assay relative to control. It counts as functional.
Experiment [5] has as its system MIA PaCa-2. As to the kind of experiment: Growth inhibition of human MIAPaCa2 cells assessed as decrease in cell number at 0.01 uM incubated for 48 hrs in presence of 1 uM OGF by MTS assay relative to control. In kind it is functional. On the technique in general: Tetrazolium assays rely on reduction of a dye to a coloured formazan, in cell work by metabolically active cells.

For experiment [6], the system named is MIA PaCa-2. As to the kind of experiment: Antitumor activity against human MIAPaCa2 cells xenografted in athymic BALB/c nu/nu nude mouse assessed as reduction in tumor volume at 120 mg/kg dosed every 3 days and co-treated with 10 mg/kg OGF measured on day 45 after tumor cell inoculation. It counts as functional. Details: scale not given: the % may be the effect or the level left.

Experiment [7] deals with MIA PaCa-2. Kind of experiment: Antitumor activity against human MIAPaCa2 cells xenografted in athymic BALB/c nu/nu nude mouse assessed as effect on tumor incidence at 10 mg/kg dosed daily measured on day 16 after tumor cell inoculation relative to control. In kind it is functional, organism-based.
Experiment [8] has as its system MIA PaCa-2. Kind of experiment: Antitumor activity against human MIAPaCa2 cells xenografted in athymic BALB/c nu/nu nude mouse assessed as latency time for visible tumor at 10 mg/kg dosed daily measured on day 10 after tumor cell inoculation (reference value: 10.1 +/- 1.8 days). It counts as functional.
Experiment [9] relates to MIA PaCa-2. As to the kind of experiment: Antitumor activity against human MIAPaCa2 cells xenografted in athymic BALB/c nu/nu nude mouse assessed as latency time for visible tumor at 120 mg/kg dosed every 3 days and co-treated with 10 mg/kg OGF measured on day 10 after tumor cell inoculation (reference value: 10.1 +/- 1.8 days). In kind it is functional.
The subject of experiment [10] is MIA PaCa-2. Kind of experiment: Antitumor activity against human MIAPaCa2 cells xenografted in athymic BALB/c nu/nu nude mouse assessed tumor weight at 10 mg/kg dosed daily measured on day 45 after tumor cell inoculation (reference value: 5.5 +/- 1 g). In kind it is functional.

Activity calls are given as the source filed them. The rule behind the calls is not given here.

With `Nc1ccn([C@@H]2O[C@H](CO)[C@@H](O)C2(F)F)c(=O)n1` [GEMCITABINE], the result in the experiment with UMSCC1 [1] and with UMSCC1 [3] was Active. Further, the results for the Time entry with UMSCC1 [2], in the experiment with MIA PaCa-2 [8] and with MIA PaCa-2 [9] were “<=2 weeks”, 10.7 days and 16.2 days, respectively. In addition, the “growth inhibition (GI)” value turned out to be 49.2% in the experiment on MIA PaCa-2 [4] and 26% with MIA PaCa-2 [5]. For the same compound, the Activity in the experiment with MIA PaCa-2 [6] was 83%; in the experiment on MIA PaCa-2 [10] it was 3.5 g. In addition, in the experiment on MIA PaCa-2 [7], the result was inactive.
